Key:
[1] = tested on: GABArho receptors expressed by bovine retina RNA; assay: Electrical recording in Xenopus oocytes expressing GABArho receptors from bovine retina RNA; assay type: cell-based
Excerpt: (§1) Electrical recording techniques and the Xenopus oocyte expression system were used to determine the sensitivity of a variety of commonly used GABAA and GABAB receptor ligands to GABArho receptors expressed by bovine retina RNA.

[2] = tested on: GABAA receptors expressed by rat brain mRNA; assay: Xenopus oocytes expressing GABAA receptors from rat brain mRNA; assay type: cell-based
[3] = tested on: GABAA receptors expressed by bovine retina mRNA; assay: Xenopus oocytes expressing GABAA receptors from bovine retina mRNA; assay type: cell-based
Excerpt: as §1
When a methylphosphinic acid substituent was used to replace the carboxyl group of GABA in this compound, affects at GABAA receptors were prohibited, but relatively strong interactions at closed channel binding sites on GABArho receptors were detected.

GABArho receptors = settings: cited from earlier work
cloned GABArho receptors = biological target: T1, cloned GABArho receptors (Homo sapiens, UniProt P24046); assay: Membrane currents in Xenopus oocytes expressing cloned GABArho receptors; assay type: cell-based
T1 construct: expressed in transfected cells; host or cells: Xenopus oocytes injected with cloned receptor RNA
Procedure: (§2) To test the new compounds synthesized, Xenopus oocytes were injected with the cloned GABA RNA and other oocytes were injected with native poly (A)^+ RNAs extracted from the rat cerebral cortex or spinal cord, bovine brain, rabbit brain, chick brain or optic lobe. […] The various concentrations of compound 7 were applied together with 10^-5M GABA.
To study the time to onset of antagonistic action by TPMPA, a timed trial utilizing pulsed application of GABA (10^-5 M) and TPMPA (8×10^-5 M) was begun. At the first marker pulse of 50 nA, GABA administration of GABA was begun. TPMPA was applied between the 2nd and 3rd markers, and normal Ringers solution (without GABA) was applied at the 4th marker pulse.

[4] = tested on: chick brain GABAA receptors; assay: Membrane currents in Xenopus oocyte expressing chick brain GABAA receptors; assay type: cell-based; settings: various concentrations applied together with 10^-5 M GABA
Procedure: as §2

[5] = tested on: GABAA receptors expressed by native mRNAs from the brain; assay: Xenopus oocytes expressing GABAA receptors from native brain mRNAs of different animal species; assay type: cell-based
Procedure: as §2

[6] = pulsed application of GABA 10^-5 M and TPMPA 8×10^-5 M

T1 sequence (P24046 22-479): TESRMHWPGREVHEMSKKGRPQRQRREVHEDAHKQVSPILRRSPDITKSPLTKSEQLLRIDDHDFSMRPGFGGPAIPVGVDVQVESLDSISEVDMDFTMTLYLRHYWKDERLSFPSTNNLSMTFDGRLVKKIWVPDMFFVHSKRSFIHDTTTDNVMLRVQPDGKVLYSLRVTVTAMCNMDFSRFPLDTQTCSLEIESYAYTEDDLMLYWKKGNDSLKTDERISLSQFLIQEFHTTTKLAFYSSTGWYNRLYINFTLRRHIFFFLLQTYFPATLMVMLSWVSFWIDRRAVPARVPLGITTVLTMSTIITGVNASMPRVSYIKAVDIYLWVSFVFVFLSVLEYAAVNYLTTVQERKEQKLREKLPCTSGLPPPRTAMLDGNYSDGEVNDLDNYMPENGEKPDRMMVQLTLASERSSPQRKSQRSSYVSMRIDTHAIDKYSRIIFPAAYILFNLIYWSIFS

Oc1noc2c1CCNC2 [THIP, 4,5,6,7-tetrahydroisoxazolo-[5,4-c]-pyridin-3-ol]
action on GABArho receptors [1]: either as weak partial agonists or as competitive antagonists

O=C(O)C1=CCNCC1 [isoguvacine]
action on GABArho receptors [1]: either as weak partial agonists or as competitive antagonists

O=C(O)C1CCNCC1 [isonipecotic acid]
action on GABArho receptors [1]: either as weak partial agonists or as competitive antagonists

CP(=O)(O)CCCN [3-aminopropyl(methyl-)phosphinic acid]
Ki ([1]; read-out: Ki as competitive antagonist at GABArho receptors): 800 nM | effects on GABAA receptors [2]: no detectable effects | effects on GABAA receptors [3]: no detectable effects

NCC(CC(=O)O)c1ccc(Cl)cc1 (stereo not drawn) [baclofen]
sensitivity of GABArho receptors (GABArho receptors): insensitive

CP(=O)(O)C1=CCNCC1 [Compound 7a, 1,2,5,6-tetrahydropyridine-4-methylphosphinic acid]
antagonism of GABArho receptors ([1]; expressed by native bovine retina mRNA): potent and selective antagonist | effect on membrane current response to GABA (cloned GABArho receptors; 8×10^-5 M compound applied together with 10^-5 M GABA): abolishes almost completely the response to GABA | antagonism of GABArho receptors (cloned GABArho receptors; expressed by cloned GABArho receptor RNA): potent and selective antagonist | onset of antagonistic action (cloned GABArho receptors; [6]): rapid in onset | recovery from antagonistic action (cloned GABArho receptors; [6]): recovery was also rapid | attenuation of currents elicited by activation of GABAA receptors [4]: not greatly attenuated until quite high concentration were used | blockage of GABAA receptors compared with GABArho receptors [5]: blockage was less than that of GABArho receptors

CN1CCc2cc3c(cc2[C@H]1[C@@H]1OC(=O)c2c1ccc1c2OCO1)OCO3 [bicuculline]
sensitivity of GABArho receptors (GABArho receptors): insensitive
